As usually defined, the AUC(0-t) is exposure summed from dosing to a finite time, without extrapolation to infinity. By Cmax is commonly meant the maximum level reached in the sampled fluid or tissue.

One data set deals with normal C57BL/6J mice. The experiment in a line: Induction of small β-cell clusters in normal C57BL/6J mice (islet size distribution). The format is in vivo, mouse. The method, then: After a 1-week acclimation, C57BL/6J female mice were randomly divided into 4 groups. The two control groups received either 10 mL/kg sterile normal saline (n=4) or scrambled peptide (Peptide 3, 25 mg/kg) (n=5) via subcutaneous injection for 10 days. The other two groups received INGAP-PP (Peptide 1) or INGAP-PP analog Peptide 7 at a dose of 25 mg/kg per day respectively (n=7 per group) for the same period. Body weight and 6 hour fasting blood glucose were measured before treatment and after the last dosing of treatment. Plasma and pancreatic insulin were also measured at the end of the study. On day 11, the pancreas was removed from each animal, cleared of fat and lymph nodes, weighed, and fixed in 10% neutral buffered formalin (NBF) for no longer than 24 hours before processing for morphometric analysis.
Immunohistochemistry analysis was used to determine pancreatic islet size distribution.

Data set [1] can be described thus: Pharmacokinetics in mouse, subcutaneous bolus. The format is in vivo. The note with it: male, C57BL/6, plasma, MOUSE (SC), 25 mg/kg; for AUC(0-t): read-out: AUC(0-t); for AUC(0-inf): read-out: AUC(0-∞); for Cmax: read-out: Cmax. The method, then: After 7 days acclimation, male Sprague-Dawley (SD) rats weighing 210-250 g, or male C57BL/6 mice, weighing 19-24 g, in good health were used in the study. Peptide 1, Peptide 12 and Peptide 16 were dissolved in sterile normal saline and then they were injected via subcutaneous (sc) bolus or intravenous (iv) bolus at the dose level of 25 mg/kg. Three animals in each group were used for blood collection at the time point of 5 min, 15 min, 30 min, 1 h, 2 h, 4 h, 6 h, 8 h and 24 h post-dose. Blood samples (approximately 400 μL) were collected and placed into tubes containing EDTA-K2 and centrifuged at 8000 rpm for 6 minutes at 4° C. to separate plasma from the samples. The resulting plasma was stored frozen at −80° C. until being analyzed. Plasma concentrations of peptides were determined using tandem mass spectrometry (LC-MS/MS) analysis. A non-compartmental module of WinNonlin® Professional 5.2 (Pharsight; St. Louis Mo.), was used to calculate PK parameters. The abbreviation AUC(0-t) represents area under the curve from the time of dosing to the time of the last observation, the AUC(0-∞) represents area under the curve from the time of dosing to infinity, and the Cmax represents maximum concentration detected.

The nature of data set [2]: Peptide concentration in plasma and pancreas 30 min post dose. To be noted: male SD rats, sc bolus 25 mg/kg, 30 min post-dose; for level at 0.5 h: male, Sprague-Dawley, rat, sc, 25 mg/kg. The format is in vivo, rat. The method, then:
To further characterize the pharmacokinetic (PK) properties of peptides, peptide concentration in pancreas—the target organ, was determined 30 min post dose. Briefly, INGAP-PP (Peptide 1), Peptide 12, or Peptide 31 was dissolved in sterile normal saline and then was administered via subcutaneous (sc) bolus at the dose level of 25 mg/kg to male Sprague-Dawley (SD) rats. Five animals in each group were used for blood and pancreas collection at the time point of 30 min post-dose. Blood samples (approximately 400 μL) were collected and placed into tubes containing EDTA-K2 and centrifuged at 8000 rpm for 6 minutes at 4° C. to separate plasma from the samples. After blood extraction and animal sacrifice, the pancreas was removed immediately from each animal, cleared of fat and lymph nodes, weighed, and placed into 5 fold volume of ice cold sterile normal saline with protease inhibitor cocktail (Merck Millipore, catalogue #539137) to homogenize with a homogenizer.
The peptide concentration of the plasma and pancreatic homogenate was determined immediately using tandem mass spectrometry (LC-MS/MS) analysis and the results are presented in Table 8.

A short description of data set [3]: Peptide stability in human plasma. The note with it: 100 μg/mL, 37° C.; FIG. 4, 15. The format is in vitro ADME. How it is done: (§1) The stability of peptides was also tested in mouse and human plasma. Briefly, a certain amount of peptides and eucatropine powder (positive control) was accurately weighed. Test compounds were dissolved in 50% methanol-water solution and diluted to 20 mg/mL, and eucatropine was dissolved in dimethylsulfoxide (DMSO) and diluted to 10 mM, as a stock solution. Eucatropine stock solution was diluted to 0.2 mM with DMSO as a working solution. A stop reagent was prepared containing 200 ng/mL midazolam and tolbutamide in acetonitrile. A volume of 300 μL of stop solution was added to each well of a 96-well deep-well plate placed on ice beforehand.
(§2) For the stability studies, peptides and eucatropine were spiked into plasma respectively, mixed well, and then 100 μL of each mixture solution was transferred into the pre-cooled stop reagent as 0 time point sample. The remaining mixtures were incubated in a 37° C. water bath with shaking at 100 rpm (n=2). The final incubation concentration was […] for eucatropine and 100 μg/mL for all test compounds.
(§3) At desired time points, 100 μL of incubation mixture was transferred to the stop reagent to precipitate proteins. Samples were vortexed and centrifuged at RCF 5000×g for 10 minutes, and supernatant was transferred to a test plate. The samples were analyzed by LC-MS/MS.
(§4) Slope was calculated by plotting the natural logarithm of the percentage of remaining amount of test compounds and time, and T1/2 was calculated in accordance with the following formula.
For stability in human plasma, the incubation time was 0, 30, 60 and 120 min for Peptide 1, Peptide 12, Peptide 16 and eucatropine.
The stability of peptides was also tested in rat, mouse and human plasma. Briefly, a certain amount of peptides and eucatropine powder (positive control) was accurately weighed. Test compounds were dissolved in 50% methanol-water solution and diluted to 20 mg/mL, and eucatropine was dissolved in dimethylsulfoxide (DMSO) and diluted to 10 mM, as a stock solution. Eucatropine stock solution was diluted to 0.2 mM with DMSO as a working solution. […]

Data set [4] in a line: Peptide stability in mouse plasma. The format is in vitro ADME. To be noted: 100 μg/mL, 37° C.; FIG. 3, 5, 14. The method, then:
as §1, §2, §3, §4
For stability in mouse plasma, the incubation time was 0, 5, 15, 30 and 60 min for Peptide 1 and eucatropine; 0, 15, 30, 60, 120, 240 and 480 min for Peptide 12, Peptide 16 and Peptide 29.
In another stability study in mouse plasma, the incubation time was 0, 30, 60 and 120 min for Peptide 2 and eucatropine; 0, 30, 60, 120, 240 and 960 min for Peptide 52 and Peptide 54.
as §1, with “tested in rat, mouse and” for “tested in mouse and”
For the stability studies, peptides and eucatropine were spiked into plasma respectively, mixed well, and then 100 μL of each mixture solution was transferred into the pre-cooled stop reagent as 0 time point sample. The remaining mixtures were incubated in a 37° C. water bath with shaking at 100 rpm (n=2). The final incubation concentration was 1 μM for eucatropine and 100 μg/mL for all test compounds.
For stability in mouse plasma, the incubation time was 0, 15, 30, 60 and 120 min for Peptide 1 and eucatropine; 0, 15, 30, 60, 120, and 240 min for Peptide 31.

Setting [5] is: plasma, read-out: Peptide concentration, Plasma.

Where two headings read alike, the source gives them in different places.

For the substance “H-IGLHDPSHGTLPNGS-OH [Peptide 1, H-IGLHDPSHGTLPNGS-OH, reference compound]”, the “number of islets, islet size (Log [μm^2]) ranging from 2.1 to 0.7” value in the data set with normal C57BL/6J mice (normal female C57BL/6J mice, 25 mg/kg per day, 10 days, versus naive/control group, FIG. 7) was “only observed in islet size of 2.1”. Further, the “effect on body weight, blood glucose, plasma insulin, pancreas insulin, pancreas weight” value in the data set with normal C57BL/6J mice (normal mice, 25 mg/kg per day sc for 10 days, compared to saline group) is reported as “did not affect body weight, blood glucose, plasma insulin, pancreas insulin, or pancreas weight”. Besides, in data set [1], the AUC(0-t) worked out at 54.5 ng·h/mL, the AUC(0-inf) came to 58.3 ng·h/mL and the highest concentration (Cmax) was found to be 141 ng/mL. The “Peptide concentration, Pancreas” value in data set [2] (pancreatic homogenate) is “NA (Below the lower limit of quantitation (LLOQ) 2.5 ng/mL)”. The level at 0.5 h in data set [2] (setting [5]) was 210 ± 107 ng/mL.

Turning to “Ac-IGLHDPSHGTLPNGS-OH [Peptide 16, Ac-IGLHDPSHGTLPNGS-OH]”, the “stability in human plasma” value in data set [3] is “exhibited good stability in human plasma and were significantly more stable than INGAP-PP”. In data set [1], the AUC(0-t) turned out to be 11400 ng·h/mL, the AUC(0-inf) was determined as 11400 ng·h/mL and the highest concentration (Cmax) was 14400 ng/mL. For the same substance, the “stability in mouse plasma” value in data set [4] was “exhibited good stability in mouse plasma and were more stable than INGAP-PP”.

As to “Ac-IGLHDPSHGTLPNGS-NH2 [Peptide 31, Ac-IGLHDPSHGTLPNGS-NH2]”, the “stability in human plasma” value in data set [3] was “exhibited good stability in human plasma and were significantly more stable than INGAP-PP”. In addition, the level at 0.5 h in data set [2] (pancreas (homogenate), pancreatic homogenate, read-out: Peptide concentration, Pancreas) turned out to be 1630 ± 340 ng/mL; in data set [2] (setting [5]) it was 15400 ± 3520 ng/mL. Besides, the “stability in mouse plasma” value in data set [4] is “exhibited good stability in mouse plasma and was more stable than INGAP-PP”.
